Calls of active or inactive are those of the source. The calls are words filed in the database; no cut-off is given here.
How the values were obtained:
SF-268 [1] = experiment: Induction of cell cycle arrest in p53 deficient human SF268 cells assessed as accumulation at subG1 phase at 0.1 uM after 24 hrs FACS analysis; assay type: functional
K562 [2] = experiment: Induction of cell cycle arrest in p53 deficient human K562 cells assessed as accumulation at subG1 phase at 0.1 uM after 24hrs by FACS analysis; assay type: functional
HeLa [3] = experiment: Induction of cell cycle arrest in p53 deficient human HeLa cells assessed as assessed as accumulation at subG1 phase at 0.1 uM after 24hrs by FACS analysis; assay type: functional
SW480 [4] = experiment: Induction of cell cycle arrest in p53 deficient human SW480 cells assessed as accumulation at subG1 phase at 0.1 uM after 24hrs by FACS analysis; assay type: functional
COLO 205 [5] = experiment: Induction of cell cycle arrest in p53 deficient human COLO205 cells assessed as accumulation at subG1 phase at 0.1 uM after 24hrs by FACS analysis; assay type: functional
[6] = Induction of cell cycle arrest in p53 deficient human HCT116-E6 cells assessed as accumulation at subG1 phase at 0.1 uM after 24hrs by FACS analysis; assay type: functional
Jurkat [7] = experiment: Induction of cell cycle arrest in p53 deficient human Jurkat cells assessed as accumulation at subG1 phase at 0.1 uM after 24hrs by FACS analysis; assay type: functional
[8] = Induction of cell cycle arrest in p53 deficient human A2780/E6 cells as accumulation at subG1 phase at 0.1 uM after 24hrs by FACS analysis; assay type: functional
OVCAR-8 [9] = experiment: Induction of cell cycle arrest in p53 deficient human OVCAR8 cells assessed as accumulation at subG1 phase at 0.1 uM after 24hrs by FACS analysis; assay type: functional
MCF7 [10] = experiment: Induction of cell cycle arrest in human MCF7 cells expressing p53 gene assessed as accumulation at subG1 phase at 0.1 uM after 24hrs by FACS analysis; assay type: functional
HCT-116 [11] = experiment: Induction of cell cycle arrest in human HCT116 cells expressing p53 gene assessed as accumulation at subG1 phase at 0.1 uM after 24hrs by FACS analysis; assay type: functional
HCT-15 [12] = experiment: Induction of cell cycle arrest in human HCT15 cells expressing p53 gene assessed as accumulation at subG1 phase at 0.1 uM after 24hrs by FACS analysis; assay type: functional
SF-539 [13] = experiment: Induction of cell cycle arrest in human SF539 cells expressing p53 gene assessed as accumulation at subG1 phase at 0.1 uM after 24hrs by FACS analysis; assay type: functional
U2OS [14] = experiment: Induction of cell cycle arrest in human U2OS cells expressing p53 gene assessed as accumulation at subG1 phase at 0.1 uM after 24hrs by FACS analysis; assay type: functional
A2780 [15] = experiment: Induction of cell cycle arrest in human A2780 cells expressing p53 gene assessed as accumulation at subG1 phase at 0.1 uM after 24hrs by FACS analysis; assay type: functional
PC-3 [16] = experiment: Induction of cell cycle arrest in human PC3 cells expressing p53 gene assessed as accumulation at subG1 phase at 0.1 uM after 24hrs by FACS analysis; assay type: functional
NHDF [17] = experiment: Induction of cell cycle arrest in NHDF expressing p53 gene assessed as accumulation at subG1 phase at 0.1 uM after 24hrs by FACS analysis; assay type: cell-based; conditions: human
SF-268 [18] = experiment: Antiproliferative activity against p53 deficient human SF268 cells after 72 hrs; assay type: functional, cell-based; conditions: SF-268, 72 h
K562 [19] = experiment: Antiproliferative activity against p53 deficient human K562 cells after 72 hrs; assay type: functional, cell-based; conditions: K562, 72 h
HeLa [20] = experiment: Antiproliferative activity against p53 deficient human HeLa cells after 72 hrs; assay type: functional, cell-based
SW480 [21] = experiment: Antiproliferative activity against p53 deficient human SW480 cells after 72 hrs by proliferative assay; assay type: functional, cell-based; conditions: SW480, 72 h
COLO 205 [22] = experiment: Antiproliferative activity against p53 deficient human COLO205 cells after 72 hrs; assay type: functional, cell-based; conditions: COLO 205, 72 h
[23] = Antiproliferative activity against p53 deficient human HCT116/E6 cells after 72 hrs by proliferative assay; assay type: functional, cell-based; conditions: HCT116-E6, 72 h
Jurkat [24] = experiment: Antiproliferative activity against p53 deficient human Jurkat cells after 72 hrs by proliferative assay; assay type: functional, cell-based
[25] = Antiproliferative activity against p53 deficient human A2780/E6 cells after 72 hrs by proliferative assay; assay type: functional, cell-based; conditions: A2780/E6, 72 h
OVCAR-8 [26] = experiment: Antiproliferative activity against p53 deficient human OVCAR8 cells after 72 hrs by proliferative assay; assay type: functional, cell-based; conditions: OVCAR-8, 72 h
MCF7 [27] = experiment: Antiproliferative activity against human MCF7 cells expressing p53 gene after 72 hrs by proliferative assay; assay type: functional, cell-based; conditions: MCF7, 72 h
HCT-116 [28] = experiment: Antiproliferative activity against human HCT116 cells expressing p53 gene after 72 hrs by proliferative assay; assay type: functional, cell-based; conditions: HCT-116, 72 h
HCT-15 [29] = experiment: Antiproliferative activity against human HCT15 cells expressing p53 gene after 72 hrs by proliferative assay; assay type: functional, cell-based; conditions: HCT-15, 72 h
SF-539 [30] = experiment: Antiproliferative activity against human SF539 cells expressing p53 gene after 72 hrs by proliferative assay; assay type: functional, cell-based; conditions: SF-539, 72 h
U2OS [31] = experiment: Antiproliferative activity against human U2OS cells expressing p53 gene after 72 hrs by proliferative assay; assay type: functional, cell-based
A2780 [32] = experiment: Antiproliferative activity against human A2780 cells expressing p53 gene after 72 hrs by proliferative assay; assay type: functional, cell-based; conditions: A2780, 72 h
PC-3 [33] = experiment: Antiproliferative activity against human PC3 cells expressing p53 gene after 72 hrs by proliferative assay; assay type: functional, cell-based; conditions: PC-3, 72 h
NHDF [34] = experiment: Antiproliferative activity against NHDF expressing p53 gene after 72 hrs by proliferative assay; assay type: cell-based; conditions: Homo sapiens
A2780 [35] = experiment: Induction of apoptosis in human A2780 cells assessed as appearance of Mcl1 protein level after 24 hrs; assay type: functional, cell-based
PC-3 [36] = experiment: Induction of cell cycle arrest in human PC3 cells expressing p53 gene assessed as accumulation at subG1 phase at 100 uM after 24hrs by FACS analysis; assay type: functional
NHDF [37] = experiment: Induction of cell cycle arrest in NHDF expressing p53 gene assessed as accumulation at subG1 phase at 100 uM after 24hrs by FACS analysis; assay type: cell-based; conditions: human
SF-268 [38] = experiment: Induction of cell cycle arrest in p53 deficient human SF268 cells assessed as accumulation at subG1 phase at 100 uM after 24 hrs FACS analysis; assay type: functional
K562 [39] = experiment: Induction of cell cycle arrest in p53 deficient human K562 cells assessed as accumulation at subG1 phase at 100 uM after 24hrs by FACS analysis; assay type: functional
HeLa [40] = experiment: Induction of cell cycle arrest in p53 deficient human HeLa cells assessed as assessed as accumulation at subG1 phase at 100 uM after 24hrs by FACS analysis; assay type: functional
SW480 [41] = experiment: Induction of cell cycle arrest in p53 deficient human SW480 cells assessed as accumulation at subG1 phase at 100 uM after 24hrs by FACS analysis; assay type: functional
COLO 205 [42] = experiment: Induction of cell cycle arrest in p53 deficient human COLO205 cells assessed as accumulation at subG1 phase at 100 uM after 24hrs by FACS analysis; assay type: functional
[43] = Induction of cell cycle arrest in p53 deficient human HCT116-E6 cells assessed as accumulation at subG1 phase at 100 uM after 24hrs by FACS analysis; assay type: functional
Jurkat [44] = experiment: Induction of cell cycle arrest in p53 deficient human Jurkat cells assessed as accumulation at subG1 phase at 100 uM after 24hrs by FACS analysis; assay type: functional
[45] = Induction of cell cycle arrest in p53 deficient human A2780/E6 cells as accumulation at subG1 phase at 100 uM after 24hrs by FACS analysis; assay type: functional
OVCAR-8 [46] = experiment: Induction of cell cycle arrest in p53 deficient human OVCAR8 cells assessed as accumulation at subG1 phase at 100 uM after 24hrs by FACS analysis; assay type: functional
MCF7 [47] = experiment: Induction of cell cycle arrest in human MCF7 cells expressing p53 gene assessed as accumulation at subG1 phase at 100 uM after 24hrs by FACS analysis; assay type: functional
HCT-116 [48] = experiment: Induction of cell cycle arrest in human HCT116 cells expressing p53 gene assessed as accumulation at subG1 phase at 100 uM after 24hrs by FACS analysis; assay type: functional
HCT-15 [49] = experiment: Induction of cell cycle arrest in human HCT15 cells expressing p53 gene assessed as accumulation at subG1 phase at 100 uM after 24hrs by FACS analysis; assay type: functional
SF-539 [50] = experiment: Induction of cell cycle arrest in human SF539 cells expressing p53 gene assessed as accumulation at subG1 phase at 100 uM after 24hrs by FACS analysis; assay type: functional
U2OS [51] = experiment: Induction of cell cycle arrest in human U2OS cells expressing p53 gene assessed as accumulation at subG1 phase at 100 uM after 24hrs by FACS analysis; assay type: functional
A2780 [52] = experiment: Induction of cell cycle arrest in human A2780 cells expressing p53 gene assessed as accumulation at subG1 phase at 100 uM after 24hrs by FACS analysis; assay type: functional

SMILES: Nc1ccn([C@@H]2O[C@H](CO)[C@@H](O)C2(F)F)c(=O)n1 [GEMCITABINE]
- Activity (SF-268 [1]): <3%
- Activity (K562 [2]): <3%
- Activity (HeLa [3]): <3%
- Activity (SW480 [4]): <3%
- Activity (COLO 205 [5]): <3%
- Activity [6]: <3%
- Activity (Jurkat [7]): >20%
- Activity [8]: <3%
- Activity (OVCAR-8 [9]): <3%
- Activity (MCF7 [10]): <3%
- Activity (HCT-116 [11]): <3%
- Activity (HCT-15 [12]): 3%
- Activity (SF-539 [13]): <3%
- Activity (U2OS [14]): <3%
- Activity (A2780 [15]): <3%
- Activity (PC-3 [16]): <3%
- Activity (NHDF [17]): < 3%
- IC50 (SF-268 [18]): 0.0103 µM
- IC50 (K562 [19]): 0.746 µM
- IC50 (HeLa [20]): > 10 µM
- IC50 (SW480 [21]): 0.0136 µM
- IC50 (COLO 205 [22]): 0.0514 µM
- IC50 [23]: 0.896 µM
- IC50 (Jurkat [24]): 0.0453 µM
- IC50 [25]: 0.0026 µM
- IC50 (OVCAR-8 [26]): 0.0026 µM
- IC50 (MCF7 [27]): 0.0803 µM
- IC50 (HCT-116 [28]): 0.0097 µM
- IC50 (HCT-15 [29]): 0.0099 µM
- IC50 (SF-539 [30]): 0.0198 µM
- IC50 (U2OS [31]): 0.0907 µM
- IC50 (A2780 [32]): 0.0166 µM
- IC50 (PC-3 [33]): 0.0026 µM
- IC50 (NHDF [34]): 0.0221 µM

SMILES: CN1CC[C@H](c2c(O)cc(O)c3c(=O)cc(-c4ccccc4Cl)oc23)[C@H](O)C1
- inhibition (A2780 [35]): Active

SMILES: O=c1[nH]cc(F)c(=O)[nH]1 [FLUOROURACIL]
- Activity (PC-3 [36]): <3%
- Activity (NHDF [37]): < 3%
- IC50 (SF-268 [18]): 88 µM
- IC50 (K562 [19]): > 100 µM
- IC50 (HeLa [20]): > 100 µM
- IC50 (SW480 [21]): 26.3 µM
- IC50 (COLO 205 [22]): 11.6 µM
- IC50 [23]: 28.9 µM
- IC50 (Jurkat [24]): 87.7 µM
- IC50 [25]: 38.7 µM
- IC50 (OVCAR-8 [26]): 96.4 µM
- IC50 (MCF7 [27]): 26.7 µM
- IC50 (HCT-116 [28]): 6.36 µM
- IC50 (HCT-15 [29]): 18.2 µM
- IC50 (SF-539 [30]): 50.1 µM
- IC50 (U2OS [31]): 13.2 µM
- IC50 (A2780 [32]): 7.21 µM
- IC50 (PC-3 [33]): 13.8 µM
- IC50 (NHDF [34]): 14.7 µM
- Activity (SF-268 [38]): <3%
- Activity (K562 [39]): <3%
- Activity (HeLa [40]): <3%
- Activity (SW480 [41]): <3%
- Activity (COLO 205 [42]): <3%
- Activity [43]: <3%
- Activity (Jurkat [44]): <3%
- Activity [45]: <3%
- Activity (OVCAR-8 [46]): <3%
- Activity (MCF7 [47]): <3%
- Activity (HCT-116 [48]): 10%
- Activity (HCT-15 [49]): <3%
- Activity (SF-539 [50]): <3%
- Activity (U2OS [51]): <3%
- Activity (A2780 [52]): <3%

— ChEMBL document CHEMBL1221210, “A Cdc7 kinase inhibitor restricts initiation of DNA replication and has antitumor activity” (Nat Chem Biol, 2008)
